Test results as given in patent US12522582B2 (Gilead Sciences, Inc., priority 2022, dated 2026).
pEC50: −log10 of the molar value. Like-named read-outs stand apart in the source and are kept apart here.

Key:
[1] = MT-4 CC50 Assay (CellTiter Glo); format: cell-based; conditions: human, MT-4 cells, luminescence, read-out: CC50-MT4
Description: Compounds were tested in 384-well plates: 18 compounds in duplex. Compounds were diluted in 7 points, 3-fold with DMSO by Bravo. Assay plate, which contains 20 uL medium with compounds, was seeded 2000 MT-4 cells in 20 uL/well by Multi-drop to start the assay. The plate was incubated at 37° C. for 5 days. On 6th day, the CellTiter Glo 40 uL was added in each well. Luminescence was read by Victor II.

HSV-2 virus (MS strain) = assay: HSV-2 Cellomics Assay (immunofluorescence of HSV protein gD in infected ARPE-19 cells); conditions: Human alphaherpesvirus 2, ARPE-19, 16 h
[2] = test system: human cryopreserved hepatocytes; assay: Stability Assay in Cryopreserved Hepatocytes (human); format: in vitro ADME; conditions: 1 μM, calculated from half-life using the well-stirred model
Description: Test compound was incubated at 1 μM with either rat or human cryopreserved hepatocytes (BioIVT, Westbury, NY) up to 6 hours at 37° C. in a 24-well plate format (1×10^6 cells/mL per well). At specified time points, samples were transferred to a 96-well plate and quenched with 2 volumes of a solution containing 90% acetonitrile 10% methanol 0.1% formic acid and internal standard. Sample plate was centrifuged at 3200 rpm for 15 min and supernatants transferred to a new plate containing half volume of water. The resulting solution was analyzed by LC-MS/MS. Data (analyte to internal standard peak area ratio) was plotted on a semi-log scale and fitted using an exponential fit. Assuming first order kinetics, the half-life (t1/2) and rate of metabolism were determined. Predicted hepatic clearance was calculated from the half-life using the well-stirred model.

[3] = read-out: EC50-HSV2-10% Human Serum

Work on `Cc1cccc(-c2ccc3c(c2)C[C@H](C(=O)N2CCc4ccc(S(N)(=O)=O)cc42)C3)n1` [Example 90, (R)-1-(5-(6-methylpyridin-2-yl)-2,3-dihydro-1H-indene-2-carbonyl)indoline-6-sulfonamide] yielded a CC50 at 5 days [1] of 36900 nM, a pEC50 (HSV-2 virus (MS strain); [3]) of 4.84 and a pEC50 (HSV-2 virus (MS strain); read-out: EC50-HSV2-FBS) of 7.64.

In the case of `CC1c2ccc(-n3cccn3)cc2CC1C(=O)N1CCc2cc(F)c(S(N)(=O)=O)cc21` (stereo not shown) [Example 100], the CC50 at 5 days [1] was 5430 nM, the pEC50 (HSV-2 virus (MS strain); [3]) was 6.97 and the pEC50 (HSV-2 virus (MS strain); read-out: EC50-HSV2-FBS) was 7.47.

With `NS(=O)(=O)c1ccc2c(c1)N(C(=O)C1Cc3ccc(-c4cscn4)cc3C1)CC2` (stereo not shown) [Example 19] the CC50 at 5 days [1] was 37700 nM, the pEC50 (HSV-2 virus (MS strain); [3]) was no more than 4.60 and the pEC50 (HSV-2 virus (MS strain); read-out: EC50-HSV2-FBS) was 7.64.

For `C[C@H]1Cc2ccc(S(N)(=O)=O)cc2N1C(=O)[C@@H]1Cc2ccc(-c3ccccn3)cc2C1` (single isomer, unassigned) [Example 16], the “Predicted human hepatic clearance” value [2] was 2 mL/min/kg and the pEC50 (HSV-2 virus (MS strain); read-out: EC50-HSV2-FBS) was 6.11.

With `NS(=O)(=O)c1ccc2c(c1)N(C(=O)[C@H]1Cc3ccc(-c4ncccc4F)cc3C1)CC2` [Example 88, (S)-1-(5-(3-fluoropyridin-2-yl)-2,3-dihydro-1H-indene-2-carbonyl)indoline-6-sulfonamide] the CC50 at 5 days [1] was 1800 nM and the pEC50 (HSV-2 virus (MS strain); read-out: EC50-HSV2-FBS) was 6.27.

In the case of `C[C@@H]1Cc2ccc(S(N)(=O)=O)cc2N1C(=O)[C@H]1Cc2cc(-c3cc(F)ccc3F)ccc2O1` [Example 123, (R)-1-((R)-5-(2,5-difluorophenyl)-2,3-dihydrobenzofuran-2-carbonyl)-2-methylindoline-6-sulfonamide], the CC50 at 5 days [1] was no less than 10000 nM, the pEC50 (HSV-2 virus (MS strain); [3]) was 6.54 and the pEC50 (HSV-2 virus (MS strain); read-out: EC50-HSV2-FBS) was 7.34.

Work on `NS(=O)(=O)c1ccc2c(c1)N(C(=O)[C@@H]1Cc3ccc(-c4ccccn4)cc3C1)CC21CC1` [Example 64, (R)-1′-(5-(pyridin-2-yl)-2,3-dihydro-1H-indene-2-carbonyl)spiro[cyclopropane-1,3′-indoline]-6′-sulfonamide] yielded a CC50 at 5 days [1] of no less than 10000 nM, a pEC50 (HSV-2 virus (MS strain); [3]) of no more than 5.00 and a pEC50 (HSV-2 virus (MS strain); read-out: EC50-HSV2-FBS) of 6.94.

In the case of `Cc1cccc(-c2ccc3c(c2)CC(C(=O)N2CCc4cc(F)c(S(N)(=O)=O)cc42)C3C)n1` (stereo not shown) [Example 99, 5-fluoro-1-(1-methyl-5-(6-methylpyridin-2-yl)-2,3-dihydro-1H-indene-2-carbonyl) indoline-6-sulfonamide], the CC50 at 5 days [1] was no less than 10000 nM, the pEC50 (HSV-2 virus (MS strain); [3]) was 6.40 and the pEC50 (HSV-2 virus (MS strain); read-out: EC50-HSV2-FBS) was 7.20.

`C[C@@H]1Cc2cc(F)c(S(N)(=O)=O)cc2N1C(=O)[C@@H]1Cc2ccc(-c3cc(F)ccc3Cl)cc2C1` [Example 50, (R)-1-((R)-5-(2-chloro-5-fluorophenyl)-2,3-dihydro-1H-indene-2-carbonyl)-5-fluoro-2-methylindoline-6-sulfonamide] showed a CC50 at 5 days [1] of no less than 10000 nM, a pEC50 (HSV-2 virus (MS strain); [3]) of 6.67 and a pEC50 (HSV-2 virus (MS strain); read-out: EC50-HSV2-FBS) of 7.21.

Compound `C[C@H]1CN(C(=O)[C@H]2Cc3cc(-c4ccccn4)ccc3[C@@H]2C)c2cc(S(N)(=O)=O)c(F)cc21` [Example 104, (R)-5-fluoro-3-methyl-1-((1R,2S)-1-methyl-5-(pyridin-2-yl)-2,3-dihydro-1H-indene-2-carbonyl)indoline-6-sulfonamide] has a CC50 at 5 days [1] of no less than 10000 nM, a pEC50 (HSV-2 virus (MS strain); [3]) of 7.19 and a pEC50 (HSV-2 virus (MS strain); read-out: EC50-HSV2-FBS) of 7.70.

For `C[C@H]1Cc2cc(F)c(S(N)(=O)=O)cc2N1C(=O)[C@H]1Cc2ccc(-c3ccccn3)cc2C1` [Example 140, (S)-5-fluoro-2-methyl-1-((S)-5-(pyridin-2-yl)-2,3-dihydro-1H-indene-2-carbonyl)indoline-6-sulfonamide], the “Predicted human hepatic clearance” value [2] was 6 mL/min/kg, the pEC50 (HSV-2 virus (MS strain); [3]) was no more than 5.00 and the pEC50 (HSV-2 virus (MS strain); read-out: EC50-HSV2-FBS) was no more than 5.00.

For `C[C@@H]1[C@@H](C)c2cc(F)c(S(N)(=O)=O)cc2N1C(=O)[C@@H]1Cc2ccc(-c3ccccn3)cc2C1` [Example 46, (2R,3S)-5-fluoro-2,3-dimethyl-1-((R)-5-(pyridin-2-yl)-2,3-dihydro-1H-indene-2-carbonyl)indoline-6-sulfonamide], the CC50 at 5 days [1] was no less than 10000 nM, the pEC50 (HSV-2 virus (MS strain); [3]) was 6.84 and the pEC50 (HSV-2 virus (MS strain); read-out: EC50-HSV2-FBS) was 7.80.

For `NS(=O)(=O)c1cc2c(cc1F)CCN2C(=O)C1Cc2ccc(-c3ccccn3)cc2C1` (stereo not shown) [Example 8], the CC50 at 5 days [1] was 42300 nM, the pEC50 (HSV-2 virus (MS strain); [3]) was 4.64 and the pEC50 (HSV-2 virus (MS strain); read-out: EC50-HSV2-FBS) was 8.00.

Compound `NS(=O)(=O)c1ccc2c(c1)N(C(=O)[C@@H]1Cc3ccc(-n4cccn4)cc3C1)CC2` [Example 91, (R)-1-(5-(1H-pyrazol-1-yl)-2,3-dihydro-1H-indene-2-carbonyl)indoline-6-sulfonamide] has a CC50 at 5 days [1] of no less than 50000 nM, a pEC50 (HSV-2 virus (MS strain); [3]) of 4.94 and a pEC50 (HSV-2 virus (MS strain); read-out: EC50-HSV2-FBS) of 7.40.

In the case of `CC1c2ccc(-c3ccccn3)cc2CC1C(=O)N1CCc2cc(F)c(S(N)(=O)=O)cc21` (stereo not shown) [Example 96, 5-fluoro-1-(1-methyl-5-(pyridin-2-yl)-2,3-dihydro-1H-indene-2-carbonyl) indoline-6-sulfonamide], the CC50 at 5 days [1] was 12900 nM, the pEC50 (HSV-2 virus (MS strain); [3]) was 7.07 and the pEC50 (HSV-2 virus (MS strain); read-out: EC50-HSV2-FBS) was 7.62.
